According to ChEMBL document CHEMBL1201862, “PubChem BioAssay data set” (2004):
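How tested: cells in 96-well plates exposed to compound for 48 hours at five concentrations. Abbreviation: GI50, concentration required for 50% inhibition of growth.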 The source made the active and inactive calls. Cut-off read from the data, not from the text of the source: active = GI50 up to about 1.1 µM and inactive = higher. Where a SMILES comes first, the peptide text is derived from it. Bridges are numbered along the chain shown (N, C = ends). [ ]: non-standard residue; d: D form. The star is where a group is joined. ξ: configuration not given here. PhAc = O=C(Cc1ccccc1)*; ξP = O=C(O)C1CCCN1

Key:
Assay in all cases: inhibition of tumour cell growth, NCI panel, 48 h
[1] = system: CAKI-1
[2] = system: DU-145
[3] = system: EKVX
[4] = system: HCT-15
[5] = system: HL-60
[6] = system: IGROV-1
[7] = system: MCF7
[8] = system: MDA-MB-435
[9] = system: MDA-N
[10] = system: MOLT-4
[11] = system: OVCAR-5
[12] = system: OVCAR-8
[13] = system: SF-268
[14] = system: SK-MEL-28
[15] = system: SNB-75
[16] = system: T47D
[17] = system: TK-10
[18] = system: U-251
[19] = system: UACC-257
[20] = system: UACC-62

For `Oc1ccccc1C(Sc1nc2ccccc2s1)Sc1nc2ccccc2s1`, the GI50 [1] was 34.4 µM (inactive), the GI50 [2] was 24.2 µM (inactive) and the GI50 [3] was 23.4 µM (inactive). The GI50 [4] was 51.3 µM, the GI50 [5] was 37.1 µM (inactive) and the GI50 [6] was 29.9 µM (inactive). The GI50 [7] was > 100 µM (inactive), the GI50 [8] was 73.5 µM (inactive) and the GI50 [9] was > 100 µM (inactive). For the same compound, the GI50 [10] was 44.2 µM (inactive), the GI50 [11] was > 100 µM (inactive) and the GI50 [12] was 85.3 µM (inactive). The GI50 [13] was 71.6 µM (inactive), the GI50 [14] was > 100 µM (inactive) and the GI50 [15] was > 100 µM (inactive). The GI50 [16] was 19.3 µM (inactive), the GI50 [17] was > 100 µM (inactive) and the GI50 [18] was 57.7 µM (inactive). For the same compound, the GI50 [19] was > 100 µM (inactive) and the GI50 [20] was 69.2 µM (inactive).

In the case of `COCC(=O)OC1CCn2c1nc1c2C(=O)C(C)=C(NC(C)=O)C1=N` (configuration not stated), the GI50 [1] is reported as 11.2 µM (inactive), the GI50 [2] is reported as 20.4 µM (inactive) and the GI50 [3] is reported as 12.3 µM (inactive). The GI50 [4] was 8.13 µM, the GI50 [5] was 2.9 µM (inactive) and the GI50 [6] was 10.8 µM (inactive). The GI50 [7] was 1.69 µM (inactive), the GI50 [8] was 1.66 µM (inactive) and the GI50 [9] was 1.82 µM (inactive). The GI50 [10] was 2.34 µM (inactive), the GI50 [11] was 9.91 µM (inactive) and the GI50 [12] was 2.56 µM (inactive). The GI50 [13] was 5.19 µM (inactive), the GI50 [14] was 4.59 µM (inactive) and the GI50 [15] was 15.3 µM (inactive). The GI50 [16] was 1.95 µM (inactive), the GI50 [17] was 15.6 µM (inactive) and the GI50 [18] was 5.38 µM (inactive). The GI50 [19] was 2.43 µM (inactive) and the GI50 [20] was 1.66 µM (inactive).

For `Cc1ccc2c(sc(-c3ccc4c(c3)sc(-c3ccc(N(C)C)cc3)[n+]4C)[n+]2C)c1S(=O)(=O)O.Cc1ccc2c(sc(-c3ccc4c(c3)sc(-c3ccc5c(c3)sc(-c3ccc(N(C)C)cc3)[n+]5C)[n+]4C)[n+]2C)c1S(=O)(=O)O`, the GI50 [1] was 10 µM (inactive), the GI50 [2] was > 100 µM (inactive) and the GI50 [3] was 76 µM (inactive). For the same compound, the GI50 [4] was 66.1 µM, the GI50 [5] was 52.8 µM (inactive) and the GI50 [6] was 9.79 µM (inactive). For the same compound, the GI50 [7] was > 100 µM (inactive), the GI50 [8] was > 100 µM (inactive) and the GI50 [9] was > 100 µM (inactive). For the same compound, the GI50 [10] was 51.9 µM (inactive), the GI50 [11] was > 100 µM (inactive) and the GI50 [12] was > 100 µM (inactive). For the same compound, the GI50 [13] was > 100 µM (inactive), the GI50 [14] was > 100 µM (inactive) and the GI50 [15] was > 100 µM (inactive). The GI50 [16] was 85.9 µM (inactive), the GI50 [17] was > 100 µM (inactive) and the GI50 [18] was > 100 µM (inactive). For the same compound, the GI50 [19] was > 100 µM (inactive) and the GI50 [20] was > 100 µM (inactive).

With `Cc1ccc(/N=N/c2c(C)nn(C(=O)CC(=O)Nc3ccc(Cl)cc3)c2C)cc1C` the GI50 [1] was > 100 µM (inactive), the GI50 [2] was > 100 µM (inactive) and the GI50 [3] was 28.2 µM (inactive). For the same compound, the GI50 [5] was 24.4 µM (inactive), the GI50 [6] was 37.2 µM (inactive) and the GI50 [7] was > 100 µM (inactive). For the same compound, the GI50 [8] was > 100 µM (inactive), the GI50 [9] was > 100 µM (inactive) and the GI50 [10] was 28.7 µM (inactive). For the same compound, the GI50 [11] was 98.2 µM (inactive), the GI50 [12] was 32.9 µM (inactive) and the GI50 [13] was 37.2 µM (inactive). The GI50 [14] was > 100 µM (inactive), the GI50 [15] was 21 µM (inactive) and the GI50 [16] was > 100 µM (inactive). For the same compound, the GI50 [17] was 49.2 µM (inactive), the GI50 [18] was 26.6 µM (inactive) and the GI50 [19] was > 100 µM (inactive). The GI50 [20] was 79.4 µM (inactive).

`CC1=CC(=O)C(=CN2C(=O)/C(=C\c3cccnc3)NC2=S)C(=O)O1` was tested, and the GI50 [1] was > 100 µM (inactive), the GI50 [2] was > 100 µM (inactive) and the GI50 [3] was > 100 µM (inactive). The GI50 [4] was > 100 µM, the GI50 [5] was 54.3 µM (inactive) and the GI50 [6] was > 100 µM (inactive). The GI50 [7] was > 100 µM (inactive), the GI50 [8] was > 100 µM (inactive) and the GI50 [9] was > 100 µM (inactive). The GI50 [10] was > 100 µM (inactive), the GI50 [11] was > 100 µM (inactive) and the GI50 [12] was > 100 µM (inactive). For the same compound, the GI50 [14] was > 100 µM (inactive), the GI50 [15] was > 100 µM (inactive) and the GI50 [16] was > 100 µM (inactive). The GI50 [17] was > 100 µM (inactive), the GI50 [18] was > 100 µM (inactive) and the GI50 [19] was > 100 µM (inactive).

`O=[N+]([O-])c1cccc2nc3ccccc3c(NCCO)c12` was tested, and the GI50 [1] was 0.00323 µM (active), the GI50 [2] was 0.0036 µM (active) and the GI50 [3] was 0.00111 µM (active). The GI50 [4] was 0.00133 µM, the GI50 [5] was 0.00325 µM (active) and the GI50 [6] was 0.00269 µM (active). For the same compound, the GI50 [7] was 0.0021 µM (active), the GI50 [8] was 0.00179 µM (active) and the GI50 [9] was 0.002 µM (active). For the same compound, the GI50 [10] was 0.00407 µM (active), the GI50 [11] was 0.00219 µM (active) and the GI50 [13] was 0.00326 µM (active). For the same compound, the GI50 [14] was 0.00217 µM (active), the GI50 [15] was 0.00164 µM (active) and the GI50 [16] was 0.000611 µM (active). The GI50 [17] was 0.00269 µM (active), the GI50 [18] was 0.00281 µM (active) and the GI50 [19] was 0.00421 µM (active). The GI50 [20] was 0.00237 µM (active).

For `O=C(Cc1ccccc1)N[C@@H]1COC(=O)C2CCCN2C(=O)[C@@H]2CCCN2C1=O` (some centres not stated) (PhAc-[dS]-Pro-[ξP]; ester 1-C), the GI50 [1] was > 100 µM (inactive), the GI50 [2] was > 100 µM (inactive) and the GI50 [3] was > 100 µM (inactive). The GI50 [4] was > 100 µM, the GI50 [5] was > 100 µM (inactive) and the GI50 [6] was > 100 µM (inactive). For the same compound, the GI50 [7] was > 100 µM (inactive), the GI50 [8] was > 100 µM (inactive) and the GI50 [9] was > 100 µM (inactive). The GI50 [10] was > 100 µM (inactive), the GI50 [11] was > 100 µM (inactive) and the GI50 [12] was > 100 µM (inactive). For the same compound, the GI50 [13] was > 100 µM (inactive), the GI50 [14] was > 100 µM (inactive) and the GI50 [15] was < 0.01 µM (active). For the same compound, the GI50 [16] was > 100 µM (inactive), the GI50 [17] was > 100 µM (inactive) and the GI50 [19] was > 100 µM (inactive). For the same compound, the GI50 [20] was > 100 µM (inactive).

`Cn1c(NN)nc(-c2ccc([N+](=O)[O-])cc2)c(C#N)c1=O` was tested, and the GI50 [1] was 26.2 µM (inactive), the GI50 [2] was 16.4 µM (inactive) and the GI50 [3] was 15.8 µM (inactive). The GI50 [4] was 16.4 µM, the GI50 [5] was 30.8 µM (inactive) and the GI50 [6] was 18.5 µM (inactive). For the same compound, the GI50 [7] was 16.6 µM (inactive), the GI50 [8] was 17.9 µM (inactive) and the GI50 [9] was 12.4 µM (inactive). The GI50 [11] was 20.8 µM (inactive), the GI50 [12] was 19.2 µM (inactive) and the GI50 [13] was 16 µM (inactive). For the same compound, the GI50 [14] was 12.5 µM (inactive), the GI50 [15] was 20.4 µM (inactive) and the GI50 [16] was 15.8 µM (inactive). The GI50 [17] was 14.3 µM (inactive), the GI50 [18] was 17.1 µM (inactive) and the GI50 [19] was 15.7 µM (inactive). For the same compound, the GI50 [20] was 15.6 µM (inactive).

In the case of `CCOc1cc(NC(C)=O)ccc1C(=O)NN1C(=O)C(Cl)C1c1ccccc1` (configuration not stated), the GI50 [1] is reported as 15.4 µM (inactive), the GI50 [2] is reported as 17.6 µM (inactive) and the GI50 [3] is reported as 14.9 µM (inactive). The GI50 [4] was 16.1 µM, the GI50 [5] was 14.1 µM (inactive) and the GI50 [6] was 3.92 µM (inactive). The GI50 [7] was 7.74 µM (inactive), the GI50 [8] was 11.5 µM (inactive) and the GI50 [9] was 13.8 µM (inactive). For the same compound, the GI50 [10] was 3.68 µM (inactive), the GI50 [11] was 17.4 µM (inactive) and the GI50 [12] was 20.9 µM (inactive). The GI50 [13] was 16.7 µM (inactive), the GI50 [14] was 16.9 µM (inactive) and the GI50 [15] was 15.6 µM (inactive). The GI50 [16] was 12.5 µM (inactive), the GI50 [17] was 16.6 µM (inactive) and the GI50 [19] was 11.9 µM (inactive). The GI50 [20] was 11 µM (inactive).

`COc1ccc(N2C(=O)C3c4[nH]c5ccccc5c4C4CCCCCCCCCC4C3C2=O)cc1` (configuration not stated) was tested, and the GI50 [1] was > 10 µM (inactive), the GI50 [2] was > 10 µM (inactive) and the GI50 [3] was > 10 µM (inactive). For the same compound, the GI50 [4] was > 10 µM, the GI50 [5] was > 10 µM (inactive) and the GI50 [6] was > 10 µM (inactive). For the same compound, the GI50 [7] was > 10 µM (inactive), the GI50 [8] was > 10 µM (inactive) and the GI50 [9] was > 10 µM (inactive). For the same compound, the GI50 [10] was > 10 µM (inactive), the GI50 [11] was > 10 µM (inactive) and the GI50 [12] was > 10 µM (inactive). The GI50 [13] was > 10 µM (inactive), the GI50 [14] was > 10 µM (inactive) and the GI50 [15] was > 10 µM (inactive). For the same compound, the GI50 [16] was > 10 µM (inactive), the GI50 [17] was > 10 µM (inactive) and the GI50 [18] was > 10 µM (inactive). For the same compound, the GI50 [20] was > 10 µM (inactive).
